Two compounds from patent US20170298081A1, “CONDENSED HETEROCYCLIC COMPOUND” (KASUMA PARTNERS INC., priority 2014, published 2017) can be followed below.

Data set [1] deals with PCSK9 protein. Nature of the data set: Influence of test compound on PCSK9 protein production amount in HepG2 cells (ELISA). Type of data set: cell-based, human. As to conditions: about 24 hours treatment, intracellular PCSK9 protein by ELISA, read-out: IC50 (50% PCSK9 production-suppressing concentration). As for the experimental part: A test compound was added to culture supernatant of cells of the human liver cancer-derived cell strain, HepG2 cells, and intracellular amount of the PCSK9 protein was measured by the enzyme-linked immunosorbent assay (ELISA) after 24 hours. Specifically, the HepG2 cells were inoculated into wells of a 96-well microplate at a density of 5 to 7.5×10^4 cells/well, and the culture supernatant was exchanged with the MEM medium containing 10% lipoprotein deficient serum (LPDS) on the next day. After the cells were further cultured for one day, the culture supernatant was exchanged with the 10% LPDS-containing MEM medium containing a test compound, and the cells were treated with the compound for about 24 hours. The medium for treating the cells was prepared by dissolving the test compound in dimethyl sulfoxide (DMSO), and adding the resulting solution to the 10% LPDS-containing medium. The medium for treating cells for control was prepared by adding DMSO to the 10% LPDS-containing medium at the same final concentration. After completion of the treatment of the cells, a solubilization buffer (1% Nonidet P-40 in phosphate buffered saline) was added to the cells to extract proteins, and they were used as a sample.
The PCSK9 protein concentration and the total protein concentration in the sample were measured by using Human PCSK9 ELISA Kit produced by R&D Systems (Cat. No. DPC900), and BCA Protein Assay Reagent. Kit produced by Thermo Scientific (Cat. No. 23227) according to the protocols described in the attached manuals, respectively. The PCSK9 protein concentration in each sample was calculated as a concentration per unit mass of proteins. Then, by using PCSK9 production suppressing ratios at various concentrations obtained in accordance with the equation mentioned below, 50% PCSK9 production-suppressing concentration (IC50) of each compound was calculated with a linear regression equation.
Equation: PCSK9 production-suppressing ratio (%)=[(Average PCSK9 protein concentration in control group−Average PCSK9 protein concentration in test compound-treated group)/Average PCSK9 protein concentration in control group]×100
(ELISA stands for enzyme-linked immunosorbent assay.)

In the case of `Nc1ccc(Cl)c2oc(-c3ccc(C(F)(F)F)cc3)nc12` [Example 35B, 4-Amino-7-chloro-2-(4-trifluoromethylphenyl)benzoxazole], the melting point (usually the temperature of the solid-liquid transition) was in the range of 149 to 150 °C. In addition, the IC50 in data set [1] amounted to 1.24 nM. Consider `Nc1c(Cl)ccc2oc(-c3ccc(C(F)(F)F)cc3)nc12` [Example 35A, 4-Amino-5-chloro-2-(4-trifluoromethylphenyl)benzoxazole], for which the melting point fell in the range of 132 to 134 °C.
